Reference: patent publication US9834542B2, “LXR modulators” (BRISTOL-MYERS SQUIBB COMPANY, priority 2013, dated 2017)

Molecular target: T1, LXRβ (Homo sapiens, UniProt P55055)
T1 construct: Co-transfection expression plasmids, comprising full-length LXRα (pCMX-h LXRα[…] or LXRβ (pCMX-hLXRβ)); expressed in transfected cells; host or cells: CV-1 African Green Monkey Kidney Cells
T1 sequence (P55055 1-460): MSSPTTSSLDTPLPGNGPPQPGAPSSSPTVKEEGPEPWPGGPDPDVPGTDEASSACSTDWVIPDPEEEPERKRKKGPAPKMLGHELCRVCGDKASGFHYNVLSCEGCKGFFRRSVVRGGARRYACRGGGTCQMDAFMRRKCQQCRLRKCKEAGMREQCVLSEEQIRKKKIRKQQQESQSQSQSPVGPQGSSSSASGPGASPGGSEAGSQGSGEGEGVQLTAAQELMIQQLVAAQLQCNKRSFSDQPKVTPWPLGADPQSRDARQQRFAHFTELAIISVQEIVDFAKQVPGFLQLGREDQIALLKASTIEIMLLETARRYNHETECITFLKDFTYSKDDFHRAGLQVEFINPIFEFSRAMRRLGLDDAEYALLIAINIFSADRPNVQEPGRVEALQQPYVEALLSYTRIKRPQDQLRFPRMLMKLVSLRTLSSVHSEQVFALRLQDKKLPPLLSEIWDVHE
T1 sequence (P19793 1-462 partner): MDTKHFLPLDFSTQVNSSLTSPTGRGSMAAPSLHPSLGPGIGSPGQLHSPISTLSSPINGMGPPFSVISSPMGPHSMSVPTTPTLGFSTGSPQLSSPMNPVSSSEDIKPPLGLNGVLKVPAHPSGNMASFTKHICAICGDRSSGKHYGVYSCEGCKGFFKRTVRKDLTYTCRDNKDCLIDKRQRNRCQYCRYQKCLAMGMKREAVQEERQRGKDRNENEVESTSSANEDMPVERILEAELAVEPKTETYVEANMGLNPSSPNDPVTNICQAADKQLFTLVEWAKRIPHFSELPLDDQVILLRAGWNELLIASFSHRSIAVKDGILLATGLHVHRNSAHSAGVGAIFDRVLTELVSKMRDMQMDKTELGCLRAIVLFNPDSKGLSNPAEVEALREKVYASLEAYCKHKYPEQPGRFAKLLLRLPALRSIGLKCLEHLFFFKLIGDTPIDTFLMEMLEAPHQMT
Assay: Co-transfection assay (LXRE luciferase reporter), LXRβ
Format: cell-based
Conditions: for EC50: CV-1 cells transfected with pCMX-hLXRβ and LXREx1-Tk-Luciferase, 20 hours incubation; for Emax: LXRβ co-transfection, relative to high control 1-(2,4-difluorobenzyl)-2-oxo-6-(4-phenoxyphenyl)-4-(trifluoromethyl)-1,2-dihydropyridine-3-carbonitrile, read-out: % Efficacy
Source text: To measure the ability of compounds to activate or inhibit the transcriptional activity of LXR in a cell based assay, the co-transfection assay was used. It has been shown that LXR functions as a heterodimer with RXR. For the co-transfection assay, expression plasmids for LXRα and LXRβ are introduced separately via transient transfection into mammalian cells along with a luciferase reporter plasmid that contains one copy of a DNA sequence that is bound by LXR-RXR heterodimers (LXRE; Willy, P. et. al. 1995). LXRs heterodimerize with the endogenous RXR. Treatment of transfected cells with an LXR agonist increases the transcriptional activity of LXR, which is measured by an increase in luciferase activity.
CV-1 African Green Monkey Kidney Cells
Co-transfection expression plasmids, comprising full-length LXRα (pCMX-h LXRα[…] or LXRβ (pCMX-hLXRβ), reporter plasmid (LXREx1-Tk-Luciferase), and control (pCMX-Galactosidase expression vector) (Willey et al. Genes & Development 9 1033-1045 (1995)).
CV-1 cells were prepared 24 hours prior to the experiment by plating them into T-175 flasks or 500 cm^2 dishes in order to achieve 70-80% confluency on the day of the transfection. The number of cells to be transfected was determined by the number of plates to be screened. Each well of a 384 well plate requires 1.5×10^4 cells. DNA Transfection Reagent was prepared by mixing the required plasmid DNAs with a cationic lipid transfection reagent Transit 2020 (Mirus Bio) for CV1 by following the instructions provided with the reagents. Optimal DNA amounts were determined empirically per cell line and size of vessel to be transfected. For each T175 cm^2 flask a total of 59 ug for CV1 of DNA, 133 uL Transit2020 and 4.5 mL DMEM for CV1 was mixed and added. Cells were then incubated at least 5 hours at 37° C. to prepare screening cells.
Luciferase assay reagent (*Steady-Glo Luciferase Assay System by Promega, CAT#E2550) was prepared by combining before use:
Assay plates were prepared by dispensing 5 μL of compound per well of a 384 well plate to achieve final compound concentration of 10 μM and no more than 0.5% DMSO. Media was removed from the screening cells, the cells trypsinized, harvested cells by centrifugation, counted, and plated at a density of approximately 1.5×10^4 cells in the 384 well assay plate prepared above in a volume of about 95 uL. Assay plates containing both compounds and screening cells (100 μL in total volume) were incubated for 20 hours at 37° C.
After incubation with compounds, media was removed from the cells and luciferase assay reagent (50 μL/well) added. After ˜2 minutes at ambient temperature, the assay plates were read on a luminometer (PE Biosystems Northstar reader with on-board injectors, or Envision(Perkin Elmer) or equivalent).
The LXR/LXRE co-transfection assay can be used to establish the EC50/IC50 values for potency and percent activity or inhibition for efficacy. Efficacy defines the activity of a compound relative to a high control 1-(2,4-difluorobenzyl)-2-oxo-6-(4-phenoxyphenyl)-4-(trifluoromethyl)-1,2-dihydropyridine-3-carbonitrileor a low control (DMSO/vehicle). The dose response curves are generated from a 11 point curve with concentrations differing by ½ LOG units. Each point represents the average of 2 wells of data from duplicate 384 well plate.
The data from this assay is fitted to the following equation, from which the EC50 value may be solved: Y=Bottom+(Top−Bottom)/(1+10^((logEC50-X)*HillSlope)).
The EC50/IC50 is therefore defined as the concentration at which an agonist or antagonist elicits a response that is halfway between the Top (maximum) and Bottom (baseline) values. The EC50/IC50 values represented are the averages of at least 2 and normally 3 independent experiments. […]

SMILES | EC50 [nM] | Emax [%]
Cc1nc(-c2cc(-c3cccc(S(C)(=O)=O)c3)ccc2-n2cc(C(F)(F)F)nc2C)c(-c2ccc(OC(F)(F)C(F)(F)F)cc2)o1 [Example 572, 2-methyl-4-(4-(2-methyl-4-(trifluoromethyl)-1H-imidazol-1-yl)-3′-(methylsulfonyl)-[1,1′-biphenyl]-3-yl)-5-(4-(perfluoroethoxy)phenyl)oxazole] | 95 | 46
Cc1nc(-c2cc(-c3cccc(S(C)(=O)=O)c3)ccc2-n2cc(C(F)(F)F)nc2C)c(-c2ccc(OC(F)F)c(OC3CC3)c2)o1 [Example 386, 5-(3-cyclopropoxy-4-(difluoromethoxy)phenyl)-2-methyl-4-(4-(2-methyl-4-(trifluoromethyl)-1H-imidazol-1-yl)-3′-(methylsulfonyl)biphenyl-3-yl)oxazole] | 73 | 64
CNS(=O)(=O)c1cccc(-c2ccc(-n3cc(C(F)(F)F)nc3C)c(-c3ocnc3-c3ccc(OC(F)(F)F)cc3)c2)c1 [Example 357, N-methyl-4′-[2-methyl-4-(trifluoromethyl)-1H-imidazol-1-yl]-3′-(4-{4-[(trifluoromethyl)oxy]phenyl}-1,3-oxazol-5-yl)biphenyl-3-sulfonamide] | 106 | 98
Cc1cc(-c2cc(-c3ccc(CO)c(S(C)(=O)=O)c3)ccc2-n2cc(C(F)(F)F)nc2C)n(-c2ccc(OC(F)F)cc2)n1 [Example 302, (3′-(1-(4-(difluoromethoxy)phenyl)-3-methyl-1H-pyrazol-5-yl)-4′-(2-methyl-4-(trifluoromethyl)-1H-imidazol-1-yl)-3-(methylsulfonyl)-[1,1′-biphenyl]-4-yl)methanol] | 25 | 81
CS(=O)(=O)c1cccc(-c2cc(F)c(-n3cnc(C(F)(F)F)c3)c(-n3nncc3-c3ccc(Cl)cc3Cl)c2)c1 [Example 191, 5-(2,4-dichlorophenyl)-1-{5-fluoro-3′-(methylsulfonyl)-4-[4-(trifluoromethyl)-1H-imidazol-1-yl]biphenyl-3-yl}-1H-1,2,3-triazole] | 452 | 102
Cc1nc(-c2cc(-c3cccc(S(C)(=O)=O)c3)ccc2-n2cc(C(F)(F)F)nc2C)c(-c2ccc(OC3CCCC3)nc2)o1 [Example 410, 5-(6-(cyclopentyloxy)pyridin-3-yl)-2-methyl-4-(4-(2-methyl-4-(trifluoromethyl)-1H-imidazol-1-yl)-3′-(methylsulfonyl)biphenyl-3-yl)oxazole] | 204 | 49
CS(=O)(=O)c1cccc(-c2cc(F)c(-n3cnc(C(F)(F)F)c3)c(-n3nncc3-c3ccc(OC(F)(F)F)cc3)c2)c1 [Example 188, 1-{5-fluoro-3′-(methylsulfonyl)-4-[4-(trifluoromethyl)-1H-imidazol-1-yl]biphenyl-3-yl}-5-{4-[(trifluoromethyl)oxy]phenyl}-1H-1,2,3-triazole] | 1750 | 89
Cc1nc(-c2cc(-c3cc(F)c(CO)c(S(C)(=O)=O)c3)ccc2-n2cc(Cl)nc2C)c(-c2ccc(OC(F)F)c(F)c2)o1 [Example 467, (4′-(4-chloro-2-methyl-1H-imidazol-1-yl)-3′-(5-(4-(difluoromethoxy)-3-fluorophenyl)-2-methyloxazol-4-yl)-3-fluoro-5-(methylsulfonyl)biphenyl-4-yl)methanol] | 66 | 65
Cc1nc(-c2ccc(OC(F)F)cc2)c(-c2cc(-c3ccc(CO)c(S(C)(=O)=O)c3)ccc2-n2cc(C(F)(F)F)nc2C)o1 [Example 625, (3′-(4-(4-(difluoromethoxy)phenyl)-2-methyloxazol-5-yl)-4′-(2-methyl-4-(trifluoromethyl)-1H-imidazol-1-yl)-3-(methylsulfonyl)-[1,1′-biphenyl]-4-yl)methanol] | 73 | 117

Next, values leading:

EC50 [nM] | Emax [%] | SMILES
176 | 105 | Cc1nc(C(F)(F)F)cn1-c1ccc(-c2ccc(CO)c(S(C)(=O)=O)c2)cc1-n1nncc1-c1ccc(OC(F)(F)F)cc1 [Example 90, [3-(methylsulfonyl)-4′-[2-methyl-4-(trifluoromethyl)-1H-imidazol-1-yl]-3′-(5-{4-[(trifluoromethyl)oxy]phenyl}-1H-1,2,3-triazol-1-yl)biphenyl-4-yl]methanol]
408 | 55 | CS(=O)(=O)c1cccc(-c2cc(Cl)c(-n3cnc(C(F)(F)F)c3)c(-n3nncc3-c3ccc(Cl)cc3)c2)c1 [Example 7, 1-(5-chloro-3′-(methylsulfonyl)-4-(4-(trifluoromethyl)-1H-imidazol-1-yl)biphenyl-3-yl)-5-(4-chlorophenyl)-1H-1,2,3-triazole]
649 | 103 | Cc1nc(C(F)(F)F)cn1-c1ccc(-c2cccc(S(C)(=O)=O)c2)cc1-n1nncc1-c1ccc(F)c(Cl)c1 [Example 33, 5-(3-chloro-4-fluorophenyl)-1-{3′-(methylsulfonyl)-4-[2-methyl-4-(trifluoromethyl)-1H-imidazol-1-yl]biphenyl-3-yl}-1H-1,2,3-triazole]
297 | 80 | Cc1nc(C(F)(F)F)cn1-c1ccc(-c2cccc(S(C)(=O)=O)c2)cc1-n1nncc1-c1ccc(OC(F)F)cc1 [Example 65, 5-{4-[(difluoromethyl)oxy]phenyl}-1-{3′-(methylsulfonyl)-4-[2-methyl-4-(trifluoromethyl)-1H-imidazol-1-yl]biphenyl-3-yl}-1H-1,2,3-triazole]
215 | 82 | Cc1cc(OC(F)(F)F)ccc1-c1cnnn1-c1cc(-c2cccc(S(C)(=O)=O)c2)ccc1-n1cc(C(F)(F)F)nc1C [Example 57, 1-{3′-(methylsulfonyl)-4-[2-methyl-4-(trifluoromethyl)-1H-imidazol-1-yl]biphenyl-3-yl}-5-{2-methyl-4-[(trifluoromethyl)oxy]phenyl}-1H-1,2,3-triazole]
